# Laboratory results reported in PubChem BioAssay (NCI).
#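 Results reflect a 48-hour exposure of cells in 96-well plates to compound at five concentrations. Here, GI50 denotes the concentration required for 50% inhibition of growth. At the TGI there is no net growth.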
# How the values were obtained:
# Experiment in all cases: DTP human tumour cell line panel, 48 h
# [1] = tested on: OVCAR-5 ovarian
# [2] = tested on: SK-MEL-2 melanoma
# [3] = tested on: MDA-MB-231 breast
# [4] = tested on: SF-268 CNS
# [5] = tested on: SN12C renal
# [6] = tested on: SNB-75 CNS
# [7] = tested on: SK-MEL-28 melanoma
# [8] = tested on: HCT-15 colon
# [9] = tested on: PC-3 prostate
# [10] = tested on: UACC-62 melanoma
# [11] = tested on: HCC-2998 colon
# [12] = tested on: DU-145 prostate
# [13] = tested on: SF-539 CNS
# [14] = tested on: T-47D breast
# [15] = tested on: NCI/ADR-RES ovarian
# [16] = tested on: K-562 leukemia
# [17] = tested on: RXF 393 renal
# [18] = tested on: MALME-3M melanoma
# [19] = tested on: NCI-H23 lung
# [20] = tested on: A498 renal
# [21] = tested on: LOX IMVI melanoma
# [22] = tested on: U251 CNS
# [23] = tested on: A549 NSCLC
# [24] = tested on: OVCAR-4 ovarian
# [25] = tested on: HOP-62 NSCLC
# [26] = tested on: MDA-MB-435
# [27] = tested on: MOLT-4 leukemia
# [28] = tested on: HS 578T breast
# [29] = tested on: EKVX NSCLC
# [30] = tested on: UACC-257 melanoma
# [31] = tested on: OVCAR-8 ovarian
# [32] = tested on: SF-295 CNS
# [33] = tested on: 786-0 renal
# [34] = tested on: IGROV1 ovarian
# [35] = tested on: UO-31 renal
# [36] = tested on: SK-MEL-5 melanoma
# [37] = tested on: MDA-MB-468 breast
# [38] = tested on: HCT-116 colon
# [39] = tested on: KM12 colon
# [40] = tested on: SK-OV-3 ovarian
# [41] = tested on: HOP-92 NSCLC
# [42] = tested on: SNB-19 CNS
# [43] = tested on: MCF7 breast
# [44] = tested on: M14 melanoma
# [45] = tested on: NCI-H522 lung
# [46] = tested on: SW-620 colon
# [47] = tested on: ACHN renal
# [48] = tested on: HL-60(TB) leukemia
# [49] = tested on: HT29 colon
# [50] = tested on: BT-549 breast
# [51] = tested on: TK-10 renal
# [52] = tested on: RPMI-8226 leukemia
# [53] = tested on: CAKI-1 renal
# [54] = tested on: SR leukemia
# [55] = tested on: CCRF-CEM leukemia
# [56] = tested on: NCI-H460 lung
# [57] = tested on: NCI-H226 lung
# [58] = tested on: COLO 205 colon
# [59] = tested on: OVCAR-3 ovarian
smiles,measurement,setting,value
O=C(Cc1ccc2c(c1)CN(C1CCC(=O)NC1=O)C2=O)NCCc1ccccc1 (stereo unspecified),GI50,[1],145 nM
same,TGI,[1],30500 nM
same,GI50,[2],225 nM
same,TGI,[2],1820 nM
same,GI50,[3],< 10 nM
same,TGI,[3],10.2 nM
same,GI50,[4],510 nM
same,TGI,[4],> 100000 nM
same,GI50,[5],188 nM
same,TGI,[5],> 30900 nM
same,GI50,[6],42 nM
same,TGI,[6],2200 nM
same,GI50,[7],589 nM
same,TGI,[7],> 100000 nM
same,GI50,[8],166 nM
same,TGI,[8],4750 nM
same,GI50,[9],36.7 nM
same,TGI,[9],> 100000 nM
same,GI50,[10],2460 nM
same,TGI,[10],> 100000 nM
same,GI50,[11],45.1 nM
same,TGI,[11],1320 nM
same,GI50,[12],20800 nM
same,TGI,[12],> 100000 nM
same,GI50,[13],564 nM
same,TGI,[13],> 100000 nM
same,GI50,[14],21.8 nM
same,TGI,[14],414 nM
same,GI50,[15],5940 nM
same,TGI,[15],> 100000 nM
same,GI50,[16],581 nM
same,TGI,[16],> 100000 nM
same,GI50,[17],402 nM
same,TGI,[17],> 24100 nM
same,GI50,[18],13.5 nM
same,TGI,[18],74.6 nM
same,GI50,[19],> 60800 nM
same,TGI,[19],> 100000 nM
same,GI50,[20],297 nM
same,TGI,[20],7760 nM
same,GI50,[21],> 100000 nM
same,TGI,[21],> 100000 nM
same,GI50,[22],> 25100 nM
same,TGI,[22],> 100000 nM
same,GI50,[23],663 nM
same,TGI,[23],> 100000 nM
same,GI50,[24],436 nM
same,TGI,[24],> 70900 nM
same,GI50,[25],30.9 nM
same,TGI,[25],1320 nM
same,GI50,[26],551 nM
same,TGI,[26],> 100000 nM
same,GI50,[27],< 10 nM
same,TGI,[27],> 100000 nM
same,GI50,[28],38.5 nM
same,TGI,[28],3100 nM
same,TGI,[29],> 100000 nM
same,GI50,[30],> 100000 nM
same,TGI,[30],> 100000 nM
same,GI50,[31],32.3 nM
same,TGI,[31],> 21400 nM
same,GI50,[32],530 nM
same,TGI,[32],> 100000 nM
same,GI50,[33],124 nM
same,TGI,[33],> 100000 nM
same,GI50,[34],33.6 nM
same,TGI,[34],1080 nM
same,GI50,[35],226 nM
same,TGI,[35],6270 nM
same,GI50,[36],156 nM
same,TGI,[36],991 nM
same,GI50,[37],< 10 nM
same,TGI,[37],16.8 nM
same,GI50,[38],67900 nM
same,TGI,[38],> 100000 nM
same,GI50,[39],276 nM
same,TGI,[39],> 100000 nM
same,GI50,[40],484 nM
same,TGI,[40],> 85700 nM
same,GI50,[41],13.4 nM
same,TGI,[41],146 nM
same,GI50,[42],76.7 nM
same,TGI,[42],> 28700 nM
same,GI50,[43],200 nM
same,TGI,[43],> 100000 nM
same,GI50,[44],114 nM
same,TGI,[44],> 56400 nM
same,GI50,[45],> 20200 nM
same,TGI,[45],> 100000 nM
same,GI50,[46],39.1 nM
same,TGI,[46],> 100000 nM
same,GI50,[47],5320 nM
same,TGI,[47],> 100000 nM
same,GI50,[48],< 10 nM
same,TGI,[48],2190 nM
same,GI50,[49],530 nM
same,TGI,[49],> 100000 nM
same,GI50,[50],19.2 nM
same,TGI,[50],75.5 nM
same,GI50,[51],727 nM
same,TGI,[51],> 100000 nM
same,GI50,[52],441 nM
same,TGI,[52],> 100000 nM
same,GI50,[53],276 nM
same,TGI,[53],> 100000 nM
same,GI50,[54],> 76500 nM
same,TGI,[54],> 100000 nM
same,GI50,[55],< 10 nM
same,GI50,[56],> 100000 nM
same,TGI,[56],> 100000 nM
same,GI50,[57],68.5 nM
same,TGI,[57],1410 nM
same,GI50,[58],43.8 nM
same,TGI,[58],1280 nM
same,GI50,[59],2240 nM
same,TGI,[59],> 100000 nM
